Source: patent US20240173439A1, “FLUORINE-CONTAINING COMPOUND AND CONTRAST MEDIUM” (TDK CORPORATION, priority 2021, published 2024)

Assay: Measurement of 19F spin-lattice relaxation time (T1) by inversion recovery, 500 MHz NMR
Type: physicochemical
Conditions: 50 mM in CDCl3, 36° C.
Procedure: (Measurement of ^19F Spin-Lattice Relaxation Time (T1))
A compound was dissolved in a deuterated chloroform solution at a concentration of 50 mM, and the longitudinal relaxation time (T1) of ^19F nucleus was measured through an inversion recovery method using a 500 MHz NMR device under the conditions shown below.
Measurement Conditions • NMR device: JNM-ECA500 (manufactured by JEOL) • Measurement temperature: 36° C. • Pulse sequence: double_pulse • relaxation_delay: 10[s] • tau_interval: 4, 3, 2, 1, 0.8, 0.6, 0.4, 0.2, 0.1[s], 80, 60, 40, 20, 10, 8, 6, 4, 2[ms] • Number of times of integration: 16 times

**Q.** With `CC1(C)CC(OCCOC(C(F)(F)F)(C(F)(F)F)C(F)(F)F)CC(C)(C)N1[O]` [Compound 12] as the compound, how does the “T1 (19F spin-lattice relaxation time)” value read?
**A.** 0.121 s

**Q.** For `CC1(C)CC(Oc2cccc(C(F)(F)F)c2)CC(C)(C)N1[O]` [Compound 19], which “T1 (19F spin-lattice relaxation time)” value is on record?
**A.** 0.110 s

**Q.** For `CCC1(CC)CC(OCCOC(C(F)(F)F)(C(F)(F)F)C(F)(F)F)CC(CC)(CC)N1[O]` [Compound 23], which “T1 (19F spin-lattice relaxation time)” value is on record?
**A.** 0.118 s

**Q.** Which “T1 (19F spin-lattice relaxation time)” value does the source give for `CC1(C)CC(OCCC(F)(F)F)CC(C)(C)N1[O]` [Compound 13] here?
**A.** 0.105 s

**Q.** Which “T1 (19F spin-lattice relaxation time)” value does the source give for `CCC1(CC)CC(OCCCCOC(C(F)(F)F)(C(F)(F)F)C(F)(F)F)CC(C)(C)N1[O]` (stereo not shown) [Compound 25, 4-(4-((1,1,1,3,3,3-hexafluoro-2-(trifluoromethyl)propane-2-yl)oxy)butoxy)-2,2-diethyl-6,6-dimethylpiperidine-1-oxyl] here?
**A.** 0.127 s

**Q.** With `CCC1(CC)CC(OCCCCOC(C(F)(F)F)(C(F)(F)F)C(F)(F)F)CC(CC)(CC)N1[O]` [Compound 22, 4-(4-((1,1,1,3,3,3-hexafluoro-2-(trifluoromethyl)propane-2-yl)oxy)butoxy)-2,2,6,6-tetraet hylpiperidine-1-oxyl] as the compound, how does the “T1 (19F spin-lattice relaxation time)” value read?
**A.** 0.130 s

**Q.** With `CC1(C)CC(OC(C(F)(F)F)C(F)(F)F)CC(C)(C)N1[O]` [Compound 16] as the compound, how does the “T1 (19F spin-lattice relaxation time)” value read?
**A.** 0.096 s

**Q.** Which “T1 (19F spin-lattice relaxation time)” value does the source give for `CC1(C)CC(OCCCCCCCCOC(C(F)(F)F)(C(F)(F)F)C(F)(F)F)CC(C)(C)N1[O]` [Compound 27, 4-((8-((1,1,1,3,3,3-hexafluoro-2-(trifluoromethyl)propane-2-yl)oxy)octyl)oxy)-2,2,6,6-tet ramethylpiperidine-1-oxyl] here?
**A.** 0.130 s

**Q.** For `CC1(C)CC(OCCCCCCCCCCCCCCCCOC(C(F)(F)F)(C(F)(F)F)C(F)(F)F)CC(C)(C)N1[O]` [Compound 29], which “T1 (19F spin-lattice relaxation time)” value is on record?
**A.** 0.284 s

**Q.** For `CC1(C)CC(Oc2ccccc2C(F)(F)F)CC(C)(C)N1[O]` [Compound 18], which “T1 (19F spin-lattice relaxation time)” value is on record?
**A.** 0.098 s

**Q.** Which “T1 (19F spin-lattice relaxation time)” value does the source give for `CC1(C)CC(OCC(F)(F)F)CC(C)(C)N1[O]` [Compound 17] here?
**A.** 0.101 s

**Q.** Which “T1 (19F spin-lattice relaxation time)” value does the source give for `CC1(C)CC(OCCCCOC(C(F)(F)F)C(F)(F)F)CC(C)(C)N1[O]` [Compound 26, 4-(4-((1,1,1,3,3,3-hexafluoropropane-2-yl)oxy)butoxy)-2,2,6,6-tetramethylpiperidine-1-o xyl] here?
**A.** 0.130 s

**Q.** For `CC1(C)CC(OC(C(F)(F)F)(C(F)(F)F)C(F)(F)F)CC(C)(C)N1[O]` [Compound 24, 4-((1,1,1,3,3,3-hexafluoro-2-(trifluoromethyl)propane-2-yl)oxy)-2,2,6,6-tetramethylpiperidine-1-oxyl], which “T1 (19F spin-lattice relaxation time)” value is on record?
**A.** 0.092 s

**Q.** Which “T1 (19F spin-lattice relaxation time)” value does the source give for `CC1(C)CC(Oc2ccc(C(F)(F)F)cc2)CC(C)(C)N1[O]` [Compound 21] here?
**A.** 0.123 s

**Q.** For `CC1(C)CC(OCCCCCCCCCCCCOC(C(F)(F)F)(C(F)(F)F)C(F)(F)F)CC(C)(C)N1[O]` [Compound 28], which “T1 (19F spin-lattice relaxation time)” value is on record?
**A.** 0.214 s

**Q.** With `CC1(C)CC(OC(C(F)(F)F)(C(F)(F)F)C(F)(F)F)CC(C)(C)N1[O]` [Compound 15, 4-((1,1,1,3,3,3-hexafluoro-2-(trifluoromethyl)propane-2-yl)oxy)-2,2,6,6-tetramethylpiper idine-1-oxyl] as the compound, how does the “T1 (19F spin-lattice relaxation time)” value read?
**A.** 0.094 s

**Q.** For `CC1(C)CC(Oc2cc(C(F)(F)F)cc(C(F)(F)F)c2)CC(C)(C)N1[O]` [Compound 20], which “T1 (19F spin-lattice relaxation time)” value is on record?
**A.** 0.108 s

**Q.** For `CC1(C)CC(OCCCC(F)(F)F)CC(C)(C)N1[O]` [Compound 14], which “T1 (19F spin-lattice relaxation time)” value is on record?
**A.** 0.117 s

**Q.** Which “T1 (19F spin-lattice relaxation time)” value does the source give for `CC1(C)CC(OCCCCOC(C(F)(F)F)(C(F)(F)F)C(F)(F)F)CC(C)(C)N1[O]` [Compound 11, 4-(4-((1,1,1,3,3,3-hexafluoro-2-(trifluoromethyl)propane-2-yl)oxy)butoxy)-2,2,6,6-tetra methylpiperidine-1-oxyl] here?
**A.** 0.134 s
